Measured values: PMC3682108 (Journal of Infection and Chemotherapy, 2012)
In brackets after ≈: the same amount, converted by molar mass. Read-outs that look alike come from different tables or passages of the source.

Columns and labels:
[1] = test system: methicillin-resistant Staphylococcus aureus (MRSA); format: in vivo, Japanese patients; conditions: for Clinical success %, Wound or burn: MITT-MRSA, daptomycin 4 mg/kg qd n/N 31/38, vancomycin 1 g bid 11/13, at TOC; for Clinical response, wound or burn: daptomycin 4 mg/kg qd, wound or burn n = 38
[2] = test system: baseline MRSA isolates; test: microbe, parasite or virus in culture; format: cell-based, Staphylococcus aureus
[3] = test system: methicillin-resistant Staphylococcus aureus (MRSA); test: EAC-assessed microbiological response at test-of-cure, MITT-MRSA population; format: in vivo, Japanese patients; conditions: daptomycin n/N 0/2, vancomycin 0/1, at TOC
[4] = Safety evaluation; format: in vivo, Japanese patients; conditions: for Recipients with CPK levels >200 U/l: human, in vivo; for Maximum CPK level in the recipient with CPK >500 U/l: single patient per group
[5] = Population pharmacokinetics of daptomycin in plasma by baseline renal function; conditions: 4 mg/kg once daily
[6] = 74 baseline MRSA isolates at screening, broth microdilution, CLSI M7-A7

| MIC range [2, 6] | MIC90 ([2]; Staphylococcus aureus, MRSA) | Compound | Clinical success %, Wound or burn [1] | Microbiological success %, Other infection [3] | Recipients with CPK levels >200 U/l [4] | Maximum CPK level in the recipient with CPK >500 U/l [4] | MIC90 [2, 6] | further results |
| --- | --- | --- | --- | --- | --- | --- | --- | --- |
|  |  | CCCCCCCCCC(=O)N[C@@H](Cc1c[nH]c2ccccc12)C(=O)N[C@H](CC(N)=O)C(=O)N[C@@H](CC(=O)O)C(=O)N[C@@H]1C(=O)NCC(=O)N[C@@H](CCCN)C(=O)N[C@@H](CC(=O)O)C(=O)N[C@H](C)C(=O)N[C@@H](CC(=O)O)C(=O)NCC(=O)N[C@H](CO)C(=O)N[C@@H]([C@H](C)CC(=O)O)C(=O)N[C@@H](CC(=O)c2ccccc2N)C(=O)O[C@@H]1C [Daptomycin] | 81.6% | 0.0% | 9.1% | 2,545 U/l |  | Clinical response, wound or burn ([1]; baseline MRSA daptomycin MIC 0.25): 87.5%; Clinical response, wound or burn ([1]; baseline MRSA daptomycin MIC 0.5): 82.4%; Clinical response, wound or burn ([1]; baseline MRSA daptomycin MIC 1): 50.0%; MIC90 ([2]; baseline isolates): 0.5 µg/mL (≈ 0.309 µM); MIC range ([2]; baseline isolates): 0.25 to 1 µg/mL; Drug-related serious adverse event (kind) ([4]; one patient, just after initial dosing, resolved 4 days after discontinuation): anaphylactic shock; Mean CL/wt lower than in patients with normal renal function (CLcr >80 ml/min) ([5]; mild renal impairment (CLcr 50–80 ml/min)): approximately 15%; Mean CL/wt lower than in patients with normal renal function (CLcr >80 ml/min) ([5]; moderate renal impairment (CLcr 30 to <50 ml/min)): approximately 15%; AUC relative to patients with normal renal function ([5]; one patient with CLcr <30 ml/min): approximately 1.4 times higher; Mean CL/wt lower than in patients with normal renal function (CLcr >80 ml/min) ([5]; severe renal impairment (CLcr <30 ml/min)): ~38% |
| 0.25 to 4 µg/mL | 2 µg/mL (≈ 3.62 µM) | NCC[C@H](O)C(=O)N[C@@H]1C[C@H](N)[C@@H](O[C@H]2O[C@H](CN)CC[C@H]2N)[C@H](O)[C@H]1O[C@H]1O[C@H](CO)[C@@H](O)[C@H](N)[C@H]1O [arbecacin] |  |  |  |  |  |  |
| 1 to 4 µg/mL | 2 µg/mL (≈ 5.93 µM) | CC(=O)NC[C@H]1CN(c2ccc(N3CCOCC3)c(F)c2)C(=O)O1 [linezolid] |  |  |  |  |  |  |
| 0.25 to 8 µg/mL |  | teicoplanin |  |  |  |  | 4 µg/mL |  |

| Compound | MIC range [2, 6] | MIC90 ([2]; Staphylococcus aureus, MRSA) | Clinical success %, Wound or burn [1] | Microbiological success %, Other infection [3] | Recipients with CPK levels >200 U/l [4] | Maximum CPK level in the recipient with CPK >500 U/l [4] | MIC90 [2, 6] | further results |
| --- | --- | --- | --- | --- | --- | --- | --- | --- |
| CN[C@H](CC(C)C)C(=O)N[C@H]1C(=O)N[C@@H](CC(N)=O)C(=O)N[C@H]2C(=O)N[C@H]3C(=O)N[C@H](C(=O)N[C@H](C(=O)O)c4cc(O)cc(O)c4-c4cc3ccc4O)[C@H](O)c3ccc(c(Cl)c3)Oc3cc2cc(c3O[C@@H]2O[C@H](CO)[C@@H](O)[C@H](O)[C@H]2O[C@H]2C[C@](C)(N)[C@H](O)[C@H](C)O2)Oc2ccc(cc2Cl)[C@H]1O [Vancomycin, vancomycin] | 0.5 to 2 µg/mL |  | 84.6% | 0.0% | 9.1% | 592 U/l | 1 µg/mL (≈ 0.69 µM) |  |
| Cc1onc(-c2ccccc2)c1C(=O)N[C@@H]1C(=O)N2[C@@H]1SC(C)(C)[C@@H]2C(=O)O [oxacillin] |  | > 128 µg/mL |  |  |  |  |  |  |
